US12324927B2, “Methods and systems for photodynamic therapy calculations” (THE TRUSTEES OF THE UNIVERSITY OF PENNSYLVANIA, priority 2018, dated 2025)
Where “and” joins values, the source holds several entries; their conditions need not be identical. Equal values may be shown once.

Test: Photofrin concentration and PDT dose at pleural cavity sites measured by fluorescence with 4-channel PDT dose dosimeter during Photofrin-mediated pleural PDT
Format: in vivo, human
Settings: for Mean Photofrin concentration: local tissue concentration per patient and pleural site, Photofrin 2 mg kg^−1 i.v. 24 h before PDT, mean ± SD of smoothed values
Procedure: The patients in this study were enrolled in a Phase II randomized clinical trial of Photofrin-mediated PDT for pleural mesothelioma treatment. Having given informed consent, they were administered Photofrin (Pinnacle Biologics, Chicago, IL, USA) at 2 mg kg^−1 of body weight as an intravenous infusion 24 h prior to intra-operative PDT. PDT was performed in the operating room, immediately following radical pleurectomy and debulking of tumor. PDT treatment was performed with 632 nm light provided by a KTP-pumped dye laser (model 630 XP, Laserscope, Inc., San Jose, CA, USA) to a total fluence of 60 J cm^−2. Light was delivered to the pleural cavity via an optical fiber inserted into modified endotracheal tube filled with 0.1% intralipid to produce an extended isotropic light source. The pleural cavity was filled with 0.01% intralipid solution during PDT treatment. As the intralipid solution became contaminated with blood as observed by the treating physician, it was repeatedly removed by suction pump and replaced with fresh solution to minimize light absorption by hemoglobin. The light source was circulated around in the lung cavity by the physician during the PDT. The instantaneous light fluence rate and the cumulative light dose were monitored continuously using 8 isotropic detectors (Medlight, Switzerland) sutured to 8 strategic locations within the pleural cavity wall. […] Each spectrometer has wavelength range of 200 nm-1050 nm and resolution of 0.42 nm using a diode array of 2048×1 elements and 14 μm×200 μm per element. The spectral resolution achieved was 0.47 nm. Isotropic detectors 9 to 12 were connected to the multichannel dosimetry system only. The dosimetry system records light fluence rate using photodiodes. Light fluence rate at surface is measured directly with an isotropic detector placed on the surface. The measured light fluence rate is not reflective of intra-tissue light fluence rate, which may be higher or lower than the value on the tissue surface depending on the tissue optical properties. Fluorescence collected by the fibers was collimated and passed through long pass filters (Semrock, Inc., Rochester, NY, USA) to block the treatment light before the transmitted fluorescence was recorded by the spectrometers, whereas no filtration was required for the treatment-light signal in the other arm of the bifurcated fibers. The front view and the schematic diagram of the system setup are shown in FIGS. 1A-B. There are 16 channels on the system enclosure as shown in FIG. 1A. Channels 9 to 16 (top row) are connected to the dosimetry system only whereas Channels 1 to 4 (bottom row) are connected to both the dosimetry system and the spectrometers. Channels 5 to 8 (bottom row) are currently not used. In this study, Channels 1 to 4 are used to measure fluence rate of the treatment light and Photofrin fluorescence concurrently, while Channel 9 to 12 are used to measure light fluence rate only.
Diffuse reflectance measurements were acquired before and after PDT treatment using a specially designed fiber optic-based contact probe comprising (e.g., or consisting of) one source fiber, coupled to an air-cooled quartz-tungsten-halogen (QTH) lamp (Avalight HAL-S, Avantes, Inc., Louisville, CO, USA), and 9 detection fibers spaced at distances from 1.4 to 8.7 mm from the source. Measurements were made with the probe in contact with the interior surface of the pleural cavity. The reflected light was collected by the detection fibers which are imaged via a spectrograph onto a CCD, to measure radially-resolved diffuse reflectance. Background signal was measured in the same tissue with the white light source turned off, and then subtracted from each measurement. Each tissue spectrum is divided by the spectrum obtained with the same light source and detector in an integrating sphere to account for the wavelength-dependence of the white light source power and CCD response. […]

[1] = 22 sites, 8 patients, 2 mg kg^−1

Substance: Photofrin
- mean of the local Photofrin concentrations measured from all sites [1]: 3.94±2.01 mg kg 1
- median of the local Photofrin concentrations measured from all sites [1]: 3.37 ± 2.01 mg/kg
- Mean Photofrin concentration (pleural site ACW): 2.80 ± 0.27 mg/kg and 9.38 ± 0.57 mg/kg
- Mean Photofrin concentration (pleural site AS): 3.22 ± 0.35 mg/kg
- Mean Photofrin concentration (pleural site Apex): 4.71 ± 0.15 mg/kg and 3.12 ± 0.35 mg/kg and 1.13 ± 0.02 mg/kg and 3.27 ± 0.71 mg/kg and 7.19 ± 0.92 mg/kg and 4.56 ± 0.45 mg/kg
- Mean Photofrin concentration (pleural site PCW): 3.47 ± 0.42 mg/kg and 1.47 ± 0.20 mg/kg and 1.58 ± 0.21 mg/kg and 5.23 ± 0.47 mg/kg and 2.32 ± 0.23 mg/kg
- Mean Photofrin concentration (pleural site PM): 5.65 ± 0.67 mg/kg and 3.62 ± 0.61 mg/kg and 6.81 ± 0.35 mg/kg
- Mean Photofrin concentration (pleural site PS): 2.94 ± 0.12 mg/kg and 3.01 ± 0.05 mg/kg and 5.73 ± 0.24 mg/kg and 3.54 ± 0.16 mg/kg
- Mean Photofrin concentration (pleural site Peri): 1.87 ± 0.31 mg/kg
- difference of local sensitizer concentrations within the same patient (patient #020, same administered dose 2 mg kg^−1): 2.9 times
- difference of local sensitizer concentrations between patients (patients #016 and #018, same administered dose 2 mg kg^−1): 8.3 times
